Measurements as given in US6972287B1, “Method of inhibiting amyloid protein aggregation and imaging amyloid deposits” (Pfizer Inc., priority 1999, dated 2005).
Several values for one entry are separate records, joined by “and”; a condition that tells them apart may be missing. Equal values may be shown once.

Key:
Aβ(1-40) [1] = molecular target: T1, Aβ(1-40) (Homo sapiens, UniProt P05067); test: BASSR (Beta-Amyloid Self-Seeding Radioassay), inhibitors of self-seeded amyloid fibril growth; type: biochemical; settings: 30 μM soluble Aβ(1-40) + 125I-labeled Aβ(1-40), 37° C., 3 to 5 hours; replicate values; letter = synthetic lot; ppt = precipitate; V-shaped = inhibition followed by precipitation
T1 construct: […]; purchased Bachem, Torrance, Calif
T1 sequence (P05067 672-711 limits assumed): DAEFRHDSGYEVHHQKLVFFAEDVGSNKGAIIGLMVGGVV
Outline: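 Self-seeded growth of ^125I-labeled Aβ(1-40) fibrils in 50 mM sodium phosphate pH 7.5, 100 mM NaCl, 0.02% NaN3, 1 M urea; compound (3-fold dilutions from 100 μM final) preincubated 10 min on ice, then 3–5 h at 37° C. Fibrils collected by vacuum filtration on 0.2 μm filters and counted for radioactivity.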

Aβ (1-42) = molecular target: T2, Aβ (1-42) (Homo sapiens, UniProt P05067); test: BATYM assay (Aβ (1-42) aggregation, Thioflavin T fluorescence); type: biochemical; settings: Aβ 1-42 final concentration 100 μM, 37° C., 1 day, letter = synthetic lot
T2 construct: Required Aβ (1-42) (California Peptide) was dried from its hexafluoroisopropanol (HFIP) stock solution; purchased California Peptide
T2 sequence (P05067 672-713 limits assumed): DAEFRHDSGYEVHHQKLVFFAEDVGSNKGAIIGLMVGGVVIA
Outline: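 Aβ (1-42) (100 μM final, PBS pH 7.4 from DMSO) incubated with compound at 37° C. for 1 day. Aggregation read by ThT (30 μM, glycine-NaOH pH 8.5) fluorescence, ex 440/em 485 nm; inhibition as fluorescence reduction corrected for compound-alone signal, IC50 by curve fitting from two experiments in triplicate.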

Aβ (1-40) peptide = molecular target: T3, Aβ (1-40) peptide (Homo sapiens, UniProt P05067); test: BAPA (Beta-Amyloid Peptide Aggregation, pH 6.0, filtration); type: biochemical; settings: Aβ (1-40) 33 μM, pH 6.0, 2 to 4 hours at room temperature; replicate values; letter = synthetic lot
T3 construct: 10 μL 0.5 mg/mL Aβ (1-40) peptide in 20% HFIP
T3 sequence (P05067 672-711 limits assumed): as the sequence (P05067 672-711 limits assumed) above
Outline: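 Aggregation of human Aβ (1-40) peptide was measured in an endpoint filtration assay. The peptide was first reduced to monomer with hexafluoroisopropanol (HFIP), then used at 33 μM so it would aggregate at pH 6.0, and incubated for 2 to 4 hours at room temperature. Filter plates were washed with 100 μL phosphate buffer, impregnated with Meltilex, and counted on a Microbeta counter with background correction.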

Aβ(1-40) [2] = molecular target: T1, Aβ(1-40); test: BASST (Beta-Amyloid Self-Seeding, Thioflavin T), inhibitors of self-seeded amyloid fibril growth; type: biochemical; settings: 30 μM soluble Aβ(1-40), 37° C., 3 to 5 hours, thioflavin T fluorescence; replicate values; letter = synthetic lot; read-out: BASST (IC50 = μM)
Outline: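 Self-seeded Aβ(1-40) fibril growth was run in 50 mM sodium phosphate pH 7.5, 100 mM NaCl, 0.02% NaN3, 1 M urea. Compounds were tested in 3-fold serial dilutions (top 100 μM final): 10 min on ice, then 3–5 h at 37 °C. Fibrils were read by 5 μM thioflavin T fluorescence (ex 440/em 485 nm).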

SMILES | melting point [°C] | IC50 (Aβ(1-40) [1]) | IC50 (Aβ (1-42)) | IC50 (Aβ (1-40) peptide) | IC50 (Aβ(1-40) [2])
COc1cc(Nc2ccc(CCc3ccc(Cl)c(Cl)c3)cc2)c(C(=O)O)cc1[N+](=O)[O-] [Example 3, 2-{4-[4-(3,4-Dichloro-phenyl)-ethyl]phenylamino}-4-methoxy-5-nitrobenzoic acid] | 208 to 209 | 4.5 µM and 5 µM (3×) and 15 µM | 11.7 µM | > 60 µM | 2 µM and 3 µM
O=C(O)c1ccccc1Nc1ccc(CCc2ccc(O)c(O)c2)cc1 [Example 4, 2-{4-[2-(3,4-Dihydroxy-phenyl)-ethyl]-phenylamino}benzoic acid] | 215 to 217 | 30 µM and > 100 µM | 26.3 µM and 30.7 µM | 67 µM | 3 µM and 4 µM and 8 µM
CCCCN(CCCC)c1ccc(CCc2ccc(Nc3ccccc3C(=O)O)cc2)cc1 [Example 5, 2-{4-[2-(4-Dibutylamino-phenyl)-ethyl]phenylamino}benzoic acid] | 115 to 117 | 70 µM and > 100 µM | 10 µM | 74 µM | 4.5 µM
O=C(O)c1ccccc1Nc1ccc(CCCc2ccc(Cl)c(Cl)c2)cc1 [Example 9, 2-{4-[3-(3,4-Dichlorophenyl)-propyl]phenylamino}-benzoic acid] | 120 to 126 | 20 µM and 30 µM and 52 µM and 40 µM | 20.1 µM and 28.2 µM and 38.6 µM | 75 µM | 1 µM and 2 µM
O=C(O)c1cc([N+](=O)[O-])ccc1Nc1ccc(CCCCCc2ccc(Cl)c(Cl)c2)cc1 [Example 13, 2-{4-[5-(3,4-Dichlorophenyl)pentyl]phenylamino}-5-nitrobenzoic acid] | 147 to 148 | 21 µM and > 100 µM (2×) and 20 µM and 15 µM | 6.41 µM | 6 µM | 0.9 µM
O=C(O)c1cc([N+](=O)[O-])ccc1Nc1ccc(CCCc2ccc(Cl)c(Cl)c2)cc1 [Example 15, 2-{4-[3-(3,4-Dichlorophenyl)propyl]phenylanino}-5-nitrobenzoic acid] | 153 to 155 | 16 µM and 12 µM and 15 µM and 11 µM | 8.52 µM and 7.26 µM and 7.07 µM | > 60 µM and 7 µM | 1 µM and 1.2 µM
O=C(O)c1ccccc1Nc1ccc(-c2ccc(Cl)c(Cl)c2)cc1 [Example 18, 2-[4-(3,4-Dichlorophenyl)phenylamino]benzoic acid] | > 220 | > 100 µM | > 100 µM | 9 µM and > 40 µM and 53 µM and 12 µM | 30 µM and > 100 µM
O=C(O)c1ccccc1Nc1ccc(CCCc2ccc([N+](=O)[O-])cc2)cc1 [Example 20, 2-{4-[3-(4-Nitrophenyl)propyl]phenylamino}benzoic acid] | 150 to 153 | 4.2 µM | 68.6 µM | 22 µM | 6 µM
O=C(O)c1ccccc1Nc1ccc(CCCc2cccc([N+](=O)[O-])c2)cc1 [Example 21, 2-{4-[3-(3-Nitrophenyl)propyl]phenylamino}benzoic acid] | 164 to 167 | 3 µM | 62.7 µM | 26 µM | 4 µM
Nc1ccc(CCc2ccc(Nc3ccccc3C(=O)O)cc2)cc1 [Example 24] | 198 to 201 | > 100 µM | > 100 µM | 91 µM | 20 µM
CCCN(CCC)c1ccc(CCc2ccc(Nc3ccccc3C(=O)O)cc2)cc1.Cl [Example 25, 2-{4-[2-(4-Dipropylaminophenyl)ethyl]phenylamino}benzoic acid monohydrochloride] | 176 to 177 | > 100 µM | 21.1 µM | 47 µM | 4 µM
CN(C)c1cccc(CCCc2ccc(Nc3ccccc3C(=O)O)cc2)c1 [Example 28, 2-{4-[3-(3-Dimethylaminophenyl)propyl]phenylamino}benzoic acid] | 115 to 117 | > 100 µM | 42.3 µM | 27 µM | 5 µM
CCNc1ccc(CCCc2ccc(Nc3ccccc3C(=O)O)cc2)cc1 [Example 29, 2-{4-[3-(4-Ethylaminophenyl)propyl]phenylamino}benzoic acid] | 133 | > 100 µM | 38.1 µM | 30 µM | 4 µM
O=C(O)c1ccccc1Nc1ccc(CCc2cccc(N(Cc3ccccc3)Cc3ccccc3)c2)cc1 [Example 31, 2-{4-[2-(3-Dibenzylaminophenyl)ethyl]phenylamino}benzoic acid] | 95.5 to 97.5 | > 100 µM | 22.6 µM | 86 µM | 1 µM
Nc1cccc(CCc2ccc(Nc3ccccc3C(=O)O)cc2)c1 [Example 33, 2-{4-[2-(3-Aminophenyl)ethyl]phenylamino}benzoic acid] | 182 to 184 | > 100 µM | > 100 µM | > 10 µM | > 100 µM
CC(=O)Nc1cccc(CCc2ccc(Nc3ccccc3C(=O)O)cc2)c1 [Example 36, 2-{4-[2-(3-Acetylaminopheny)ethyl]phenylamino}benzoic acid] | 213 to 215 | > 100 µM | > 100 µM | 149 µM | > 100 µM
CCCN(CCC)c1cccc(CCc2ccc(Nc3ccccc3C(=O)O)cc2)c1.Cl [Example 37, 2-{4-[2-(3-Dipropylaminophenyl)ethyl]phenylamino}benzoic acid monohydrochloride] | 189 to 193 | > 100 µM | 30.2 µM | 25 µM | 0.8 µM
CCCCN(CCCC)c1cccc(CCc2ccc(Nc3ccccc3C(=O)O)cc2)c1.Cl [Example 38, 2-{4-[2-(3-Dibutylaminophenyl)ethyl]phenylamino}benzoic acid monohydrochloride] | 175 to 180 | 20 µM and 10 µM | 23.4 µM | 184 µM | 3 µM
CC(=O)Nc1ccc(CCCc2ccc(Nc3ccccc3C(=O)O)cc2)cc1 [Example 39, 2-{4-[3-(4-Acetylaminophenyl)propyl]phenylamino}benzoic acid] | 176 to 178 | > 100 µM | > 100 µM | 21 µM | 20 µM
CC(=O)Nc1cccc(CCCc2ccc(Nc3ccccc3C(=O)O)cc2)c1 [Example 40, 2-{4-[3-(3-Acetylaminophenyl)propyl]phenylamino}benzoic acid] | 140 to 145 | > 100 µM | > 100 µM | 53 µM | 3 µM
CCN(CC)c1cccc(CCc2ccc(Nc3ccccc3C(=O)O)cc2)c1.Cl [Example 41, 2-{4-[2-(3-Diethylaminophenyl)ethyl]phenylamino}benzoic acid monohydrochloride] | 166 to 171 | > 100 µM | 49.7 µM | 42 µM | 5 µM
Cl.O=C(O)c1ccccc1Nc1ccc(CCc2cccc(N3CCCCC3)c2)cc1 [Example 42, 2-{4-[2-(3-Piperidin-1-ylphenyl)ethyl]phenylamino}benzoic acid monohydrochloride] | 187 to 193 | > 100 µM | 55.6 µM | 30 µM | 2 µM
CCCCN1CCCc2cc(C=C3SC(=S)N(CC(=O)O)C3=O)ccc21 [Example 55, {5-[(1-Butyl-1,2,3,4-tetrahydro-6-quinolyl)methylidene]-4-oxo-2-thioxothiazolidin-3-yl}acetic acid] | 222 to 224 | 12 µM | 5.1 µM | 101 µM | 2 µM
CCCCN1CCc2cc(C=C3SC(=S)N(CC(=O)O)C3=O)ccc21 [Example 56, {5-[(1-Butyl-2,3-dihydro-1H-indol-5-yl)methylidene]-4-oxo-2-thioxothiazolidin-3-yl}acetic acid] | > 250 | > 100 µM | 11.5 µM | 30 µM | 3 µM
Cc1ccc(Nc2ccc(CCCc3ccc(Cl)c(Cl)c3)cc2)c(C(=O)O)c1 [Example 59, 2-{4-[3-(3,4-Dichloro-phenyl)propyl]phenylamino}-5-methyl-benzoic acid] | 98 to 99 | > 100 µM | > 100 µM | 3 µM | > 100 µM
